ChEMBL document CHEMBL3102716, “High-throughput virtual screening identifies novel N'-(1-phenylethylidene)-benzohydrazides as potent, specific, and reversible LSD1 inhibitors” (J Med Chem, 2013)
The source made the active and inactive calls. The rule behind the calls is not given here.

Assays:
[1] = target: T1, Lysine-specific histone demethylase 1A (Homo sapiens, UniProt O60341)
Description: Inhibition of LSD1 (unknown origin) using dimethyl K4 peptide as substrate assessed as resorufin level by spectrophotometric analysis

T47D = assay: cells; conditions: Homo sapiens, 96 h
[2] = target: T1, Lysine-specific histone demethylase 1A; assay: Inhibition of GST-tagged human recombinant LSD1 using dimethylated H3K4 peptide as substrate by mass spectrometric analysis
[3] = target: T1, Lysine-specific histone demethylase 1A; assay: Inhibition of human recombinant LSD1 expressed in Escherichia coli BL21(DE3) using H3K4me2 as substrate by chemiluminescence assay
[4] = target: T1, Lysine-specific histone demethylase 1A; assay: Non-competitive inhibition of recombinant full-length His6-tagged LSD1 (unknown origin) using dimethylated K4N-terminal H3 peptide as substrate at 100 nM by Michaelis-Menten plot analysis
[5] = target: T1, Lysine-specific histone demethylase 1A; assay: Non-competitive inhibition of recombinant full-length His6-tagged LSD1 (unknown origin) using dimethylated K4N-terminal H3 peptide as substrate at 30 nM by Michaelis-Menten plot analysis
[6] = target: T1, Lysine-specific histone demethylase 1A; assay: Non-competitive inhibition of recombinant full-length His6-tagged LSD1 (unknown origin) using dimethylated K4N-terminal H3 peptide as substrate at 10 nM by Michaelis-Menten plot analysis
[7] = target: T1, Lysine-specific histone demethylase 1A; assay: Non-competitive inhibition of recombinant full-length His6-tagged LSD1 (unknown origin) using dimethylated K4N-terminal H3 peptide as substrate at 1 nM by Michaelis-Menten plot analysis
[8] = target: T1, Lysine-specific histone demethylase 1A; assay: Non-competitive inhibition of recombinant full-length His6-tagged LSD1 (unknown origin) using dimethylated K4N-terminal H3 peptide as substrate at 3 nM by Michaelis-Menten plot analysis
[9] = target: T1, Lysine-specific histone demethylase 1A; assay: Binding affinity to recombinant full-length His6-tagged LSD1 (unknown origin) assessed as first derivative melting temperature at 15 uM after 30 mins by differential scanning fluorimetry
[10] = target: T1, Lysine-specific histone demethylase 1A; assay: Binding affinity to recombinant full-length His6-tagged LSD1 (unknown origin) assessed as Boltzmann melting temperature at 15 uM after 30 mins by differential scanning fluorimetry
[11] = target: T1, Lysine-specific histone demethylase 1A; assay: Reversible inhibition of full-length 6His-tagged LSD1 (unknown origin) at 10XIC50 preincubated for 1 hr followed by 100 fold dilution relative to control
Cytochrome P450 3A4 = Cytochrome P450 3A4 (Homo sapiens, UniProt P08684); assay: Inhibition of CYP3A4 (unknown origin); type: ADME
Sequence of Cytochrome P450 3A4 (P08684 whole entry): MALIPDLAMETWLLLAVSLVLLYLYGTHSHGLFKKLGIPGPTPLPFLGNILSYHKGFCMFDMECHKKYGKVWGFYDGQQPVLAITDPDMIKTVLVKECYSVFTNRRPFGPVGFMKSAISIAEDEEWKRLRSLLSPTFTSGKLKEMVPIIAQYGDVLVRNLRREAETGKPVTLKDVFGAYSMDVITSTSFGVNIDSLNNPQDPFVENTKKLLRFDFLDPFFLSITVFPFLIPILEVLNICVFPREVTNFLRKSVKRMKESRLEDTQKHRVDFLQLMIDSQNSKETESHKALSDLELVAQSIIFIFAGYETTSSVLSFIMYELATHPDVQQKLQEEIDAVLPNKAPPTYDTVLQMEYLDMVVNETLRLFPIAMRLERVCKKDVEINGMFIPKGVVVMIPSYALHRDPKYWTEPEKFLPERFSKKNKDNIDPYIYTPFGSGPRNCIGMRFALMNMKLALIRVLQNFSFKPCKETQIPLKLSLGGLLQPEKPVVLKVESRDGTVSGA

[12] = target: Voltage-gated inwardly rectifying potassium channel KCNH2 (Homo sapiens, UniProt Q12809); assay: Inhibition of human ERG
Sequence of Voltage-gated inwardly rectifying potassium channel KCNH2 (Q12809 whole entry): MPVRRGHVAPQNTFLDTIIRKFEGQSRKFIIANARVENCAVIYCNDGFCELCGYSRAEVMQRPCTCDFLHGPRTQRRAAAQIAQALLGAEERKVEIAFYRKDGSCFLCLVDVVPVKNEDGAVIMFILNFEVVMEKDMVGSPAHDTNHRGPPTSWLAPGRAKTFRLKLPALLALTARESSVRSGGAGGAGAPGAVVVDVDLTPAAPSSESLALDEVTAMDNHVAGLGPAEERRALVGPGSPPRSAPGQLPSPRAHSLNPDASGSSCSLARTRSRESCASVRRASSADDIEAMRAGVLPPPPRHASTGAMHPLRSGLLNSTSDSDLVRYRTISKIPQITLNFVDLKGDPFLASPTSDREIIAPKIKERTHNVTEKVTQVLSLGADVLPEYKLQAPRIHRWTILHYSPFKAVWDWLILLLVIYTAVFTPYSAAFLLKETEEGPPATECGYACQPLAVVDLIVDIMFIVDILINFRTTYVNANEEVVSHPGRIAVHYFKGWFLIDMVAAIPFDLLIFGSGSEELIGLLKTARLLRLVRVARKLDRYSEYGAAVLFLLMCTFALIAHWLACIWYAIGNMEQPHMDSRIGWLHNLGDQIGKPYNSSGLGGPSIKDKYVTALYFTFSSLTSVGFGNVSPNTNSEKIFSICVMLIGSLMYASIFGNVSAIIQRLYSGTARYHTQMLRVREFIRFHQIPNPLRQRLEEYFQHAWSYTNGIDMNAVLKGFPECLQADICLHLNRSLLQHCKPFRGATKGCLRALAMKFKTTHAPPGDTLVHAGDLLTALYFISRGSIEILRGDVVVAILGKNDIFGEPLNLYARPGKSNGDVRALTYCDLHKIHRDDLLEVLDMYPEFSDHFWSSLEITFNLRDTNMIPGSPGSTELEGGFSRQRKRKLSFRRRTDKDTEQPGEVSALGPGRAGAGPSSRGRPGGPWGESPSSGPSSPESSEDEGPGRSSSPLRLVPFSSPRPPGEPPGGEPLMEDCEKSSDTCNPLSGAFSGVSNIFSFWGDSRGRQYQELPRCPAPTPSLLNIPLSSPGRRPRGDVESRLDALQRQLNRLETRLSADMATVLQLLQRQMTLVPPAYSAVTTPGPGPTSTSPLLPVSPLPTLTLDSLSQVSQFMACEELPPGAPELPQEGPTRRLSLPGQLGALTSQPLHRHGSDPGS

Cytochrome P450 2C9 = Cytochrome P450 2C9 (Homo sapiens, UniProt P11712); assay: Inhibition of CYP2C9 (unknown origin); type: ADME
Sequence of Cytochrome P450 2C9 (P11712 whole entry): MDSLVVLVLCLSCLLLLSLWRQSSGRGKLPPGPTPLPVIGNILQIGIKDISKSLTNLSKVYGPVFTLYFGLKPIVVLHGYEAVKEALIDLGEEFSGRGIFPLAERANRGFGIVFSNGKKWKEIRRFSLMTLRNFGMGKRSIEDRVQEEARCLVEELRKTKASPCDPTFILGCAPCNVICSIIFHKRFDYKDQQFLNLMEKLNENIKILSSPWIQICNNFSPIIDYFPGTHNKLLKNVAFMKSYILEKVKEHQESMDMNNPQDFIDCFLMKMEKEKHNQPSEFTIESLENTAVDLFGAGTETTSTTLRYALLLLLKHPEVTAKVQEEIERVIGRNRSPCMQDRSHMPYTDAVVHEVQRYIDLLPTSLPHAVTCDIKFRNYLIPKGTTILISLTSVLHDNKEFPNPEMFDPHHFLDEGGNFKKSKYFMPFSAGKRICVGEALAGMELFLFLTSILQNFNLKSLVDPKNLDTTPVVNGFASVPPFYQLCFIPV

Cytochrome P450 2D6 = Cytochrome P450 2D6 (Homo sapiens, UniProt P10635); assay: Inhibition of CYP2D6 (unknown origin); type: ADME
Sequence of Cytochrome P450 2D6 (P10635 whole entry): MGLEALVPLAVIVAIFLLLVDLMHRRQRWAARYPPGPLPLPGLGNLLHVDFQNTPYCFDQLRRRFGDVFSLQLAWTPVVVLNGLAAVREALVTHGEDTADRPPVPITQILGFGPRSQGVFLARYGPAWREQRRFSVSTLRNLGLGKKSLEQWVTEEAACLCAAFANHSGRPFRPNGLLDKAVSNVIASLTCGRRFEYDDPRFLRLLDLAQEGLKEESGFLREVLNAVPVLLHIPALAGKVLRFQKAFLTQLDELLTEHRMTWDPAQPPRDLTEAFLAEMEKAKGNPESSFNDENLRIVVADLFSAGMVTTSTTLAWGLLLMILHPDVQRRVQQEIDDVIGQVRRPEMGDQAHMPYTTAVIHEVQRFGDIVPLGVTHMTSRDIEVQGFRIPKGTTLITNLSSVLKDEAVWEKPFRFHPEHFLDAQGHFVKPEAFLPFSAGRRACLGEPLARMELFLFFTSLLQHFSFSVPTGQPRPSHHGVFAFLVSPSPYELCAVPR

Cytochrome P450 1A2 = target: T2, Cytochrome P450 1A2 (Homo sapiens, UniProt P05177); assay: Inhibition of CYP1A2 (unknown origin); type: ADME
T2 sequence (P05177 whole entry): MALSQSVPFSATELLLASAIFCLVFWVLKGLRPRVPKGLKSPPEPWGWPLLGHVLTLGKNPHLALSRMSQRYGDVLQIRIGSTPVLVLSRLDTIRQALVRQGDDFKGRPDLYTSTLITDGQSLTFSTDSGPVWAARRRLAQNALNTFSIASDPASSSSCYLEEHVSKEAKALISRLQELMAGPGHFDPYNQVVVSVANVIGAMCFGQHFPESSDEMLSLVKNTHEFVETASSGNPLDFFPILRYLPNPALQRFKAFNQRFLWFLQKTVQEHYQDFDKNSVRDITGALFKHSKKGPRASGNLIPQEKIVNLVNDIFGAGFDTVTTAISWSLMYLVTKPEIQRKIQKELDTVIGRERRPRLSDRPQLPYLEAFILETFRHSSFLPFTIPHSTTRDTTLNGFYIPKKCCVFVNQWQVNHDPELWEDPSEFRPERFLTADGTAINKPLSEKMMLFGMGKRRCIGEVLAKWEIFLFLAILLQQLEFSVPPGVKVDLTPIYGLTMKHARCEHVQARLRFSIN

Cytochrome P450 2C19 = Cytochrome P450 2C19 (Homo sapiens, UniProt P33261); assay: Inhibition of CYP2C19 (unknown origin); type: ADME
Sequence of Cytochrome P450 2C19 (P33261 whole entry): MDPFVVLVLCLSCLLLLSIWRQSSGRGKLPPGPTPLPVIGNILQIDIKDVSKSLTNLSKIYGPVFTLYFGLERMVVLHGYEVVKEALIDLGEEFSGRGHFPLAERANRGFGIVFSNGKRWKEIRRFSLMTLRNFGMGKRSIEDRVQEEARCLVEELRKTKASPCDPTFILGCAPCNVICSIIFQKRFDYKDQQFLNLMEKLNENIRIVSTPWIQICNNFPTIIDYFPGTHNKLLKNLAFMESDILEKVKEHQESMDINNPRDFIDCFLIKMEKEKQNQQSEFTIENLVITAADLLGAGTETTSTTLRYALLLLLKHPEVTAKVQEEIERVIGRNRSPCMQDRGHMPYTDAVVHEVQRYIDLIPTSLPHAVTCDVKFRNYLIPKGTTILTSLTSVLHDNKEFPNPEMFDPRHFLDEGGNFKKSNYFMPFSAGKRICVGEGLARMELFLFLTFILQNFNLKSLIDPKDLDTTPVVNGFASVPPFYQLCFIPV

[13] = Inhibition of glucose oxidase (unknown origin)
[14] = Inhibition of D-lactate dehydrogenase (unknown origin); parameters: species or system Homo sapiens
[15] = target: T3, Amine oxidase [flavin-containing] B (Homo sapiens, UniProt P27338)
T3 sequence (P27338 whole entry): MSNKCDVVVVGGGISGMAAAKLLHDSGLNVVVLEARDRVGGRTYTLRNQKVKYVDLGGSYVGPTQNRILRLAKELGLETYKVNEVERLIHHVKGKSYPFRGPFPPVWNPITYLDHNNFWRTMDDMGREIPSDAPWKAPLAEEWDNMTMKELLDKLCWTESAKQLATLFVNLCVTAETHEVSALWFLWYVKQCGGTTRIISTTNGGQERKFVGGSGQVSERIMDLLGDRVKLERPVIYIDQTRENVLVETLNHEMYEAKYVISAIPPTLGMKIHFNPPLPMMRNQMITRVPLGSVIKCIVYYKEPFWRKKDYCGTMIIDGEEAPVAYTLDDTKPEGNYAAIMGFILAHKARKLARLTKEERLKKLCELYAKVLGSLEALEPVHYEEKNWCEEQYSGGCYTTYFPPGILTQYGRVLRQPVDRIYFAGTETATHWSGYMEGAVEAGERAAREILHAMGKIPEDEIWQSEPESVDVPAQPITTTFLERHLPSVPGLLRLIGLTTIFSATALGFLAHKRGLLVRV
Description: Inhibition of MAO-B (unknown origin)

[16] = target: T4, Amine oxidase [flavin-containing] A (Homo sapiens, UniProt P21397)
T4 sequence (P21397 whole entry): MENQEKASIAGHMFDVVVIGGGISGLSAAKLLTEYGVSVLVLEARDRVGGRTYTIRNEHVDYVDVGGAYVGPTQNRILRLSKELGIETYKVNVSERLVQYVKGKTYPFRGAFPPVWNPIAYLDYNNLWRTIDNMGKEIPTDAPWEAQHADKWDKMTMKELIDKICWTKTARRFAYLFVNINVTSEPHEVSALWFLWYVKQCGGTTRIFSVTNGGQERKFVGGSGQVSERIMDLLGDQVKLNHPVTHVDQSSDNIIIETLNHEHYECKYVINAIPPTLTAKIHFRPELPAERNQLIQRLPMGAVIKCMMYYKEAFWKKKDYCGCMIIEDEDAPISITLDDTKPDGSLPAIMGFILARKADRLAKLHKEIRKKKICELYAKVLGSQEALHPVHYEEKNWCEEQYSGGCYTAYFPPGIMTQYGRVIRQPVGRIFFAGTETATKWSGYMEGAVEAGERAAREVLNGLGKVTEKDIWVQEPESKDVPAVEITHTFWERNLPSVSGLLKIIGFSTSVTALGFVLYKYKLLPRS
Description: Inhibition of MAO-A (unknown origin)

[17] = target: T1, Lysine-specific histone demethylase 1A; assay: Binding affinity to recombinant full-length His6-tagged LSD1 (unknown origin) assessed as second derivative melting temperature at 15 uM after 30 mins by differential scanning fluorimetry (reference value: […] +/- 1.08 degC)
[18] = target: T1, Lysine-specific histone demethylase 1A; assay: Reversible inhibition of full-length 6His-tagged LSD1 (unknown origin) at 10XIC50 after 1 hr relative to control

Row | SMILES | IC50 [1] [µM] | IC50 (T47D) [µM] | also measured
1 | CCN(CC)c1cccc(C(=O)N/N=C(\C)c2cccc(C)c2)c1 | > 3 | > 10 | –
2 | C/C(=N\NC(=O)c1cccc(S(=O)(=O)N2CCOCC2)c1)c1cccc(Cl)c1F | > 3 | > 10 | –
3 | COC(=O)c1cc(CN2CCN(C(=N)N)CC2)cc(C(=O)N2CCN(C(=O)c3ccc(C=N)cc3)CC2)c1 | – | – | IC50 [2]: 5.2 µM
4 | CCNCCCNC/C=C\CNCCCNCC | – | – | IC50 [3]: 0.25 µM
5 | C/C(=N\NC(=O)c1cccc(S(=O)(=O)N2CCOCC2)c1)c1cccc2ccccc12 | – | > 10 | –
6 | C/C(=N/NC(=O)c1cccc(S(=O)(=O)N2CCOCC2)c1)c1cccnc1 | > 3 | – | –
7 | C/C(=N\NC(=O)c1cccc(S(=O)(=O)N2CCOCC2)c1)c1cc(Cl)ccc1O | – | – | Ki [4]: 0.0547 µM; Ki [5]: 0.0352 µM; Ki [6]: 0.0319 µM; Ki [7]: 0.0135 µM; Ki [8]: 0.0353 µM; Tm [9]: 45.4 °C; Tm [10]: 44.6 °C; inhibition [11]: 65.7%; IC50 (Cytochrome P450 3A4): 2.61 µM; IC50 [12]: > 10 µM; IC50 (Cytochrome P450 2C9): 8.04 µM; IC50 (Cytochrome P450 2D6): > 10 µM; IC50 (Cytochrome P450 1A2): > 10 µM; IC50 (Cytochrome P450 2C19): 9.76 µM; IC50 [13]: > 10 µM; IC50 [14]: > 10 µM; IC50 [15]: > 300 µM; IC50 [16]: > 300 µM
8 | C/C(=N/NC(=O)c1cccc(S(=O)(=O)N(C)C)c1)c1cc(Cl)ccc1O | – | 1.38 | –
9 | C/C(=N/NC(=O)c1cncc(Cl)c1)c1cc(Cl)ccc1O | > 3 | 0.616 | –
10 | C/C(=N/NC(=O)c1cnc(Cl)c(Br)c1)c1cc(Cl)ccc1O | > 3 | 0.27 | –
11 | C/C(=N/NC(=O)c1ccc(Cl)c(Br)c1)c1cc(Cl)ccc1O | > 3 | 0.565 | –
12 | COc1ccc(Cl)cc1C(=O)NNC(=O)c1cc(S(=O)(=O)N2CCOCC2)ccc1F | > 3 | > 10 | –
13 | C/C(=N\NC(=O)c1cccc(S(=O)(=O)N2CCOCC2)c1)c1cc(Cl)ccc1Cl | > 3 | 1.7 | Tm [17]: 46.7 °C; Tm [9]: 40.8 °C; Tm [10]: 43.3 °C; inhibition [18]: inactive; inhibition [11]: inactive
14 | CC/C(=N/NC(=O)c1cccc(S(=O)(=O)N2CCOCC2)c1)c1cc(Cl)ccc1O | > 3 | 0.352 | –
15 | C/C(=N\NC(=O)c1cccc(S(=O)(=O)N2CCOCC2)c1)c1ccnc(Cl)c1 | > 3 | > 10 | –
16 | C/C(=N\NC(=O)c1ccccc1)c1c(O)cccc1O | > 3 | > 10 | –
17 | O=C(NNC(=O)c1cc(S(=O)(=O)N2CCOCC2)ccc1F)c1cccc(Cl)c1 | > 3 | > 10 | –
